Source: the supplement of paper PMC10307832

How the values were obtained:
Experiment in all cases: relative viability (nuclei count vs DMSO), 5 days (fraction); higher = more cells survive
Bosutinib + Luminespib = compound: COc1cc(Nc2c(C#N)cnc3cc(OCCCN4CCN(C)CC4)c(OC)cc23)c(Cl)cc1Cl [Bosutinib] + CCNC(=O)c1noc(-c2cc(C(C)C)c(O)cc2O)c1-c1ccc(CN2CCOCC2)cc1 [Luminespib] (partner 0.01 µM)
In short: (§1)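 One day after seeding in 1536-well plates, lung cancer cell lines were dosed by pin tool. Dosing was either single-drug or a fixed anchor-drug dose plus five library-drug doses (not always all listed) in √10 steps. After 5 days, nuclei were stained in one fix-and-stain step and counted on 4× images, and relative viability is the nuclei count of treated wells over that of vehicle wells, given as the median of duplicate plates.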

Bosutinib + Foretinib = compound: COc1cc(Nc2c(C#N)cnc3cc(OCCCN4CCN(C)CC4)c(OC)cc23)c(Cl)cc1Cl [Bosutinib] + COc1cc2c(Oc3ccc(NC(=O)C4(C(=O)Nc5ccc(F)cc5)CC4)cc3F)ccnc2cc1OCCCN1CCOCC1 [Foretinib] (partner 0.25 µM)
In short: as §1

Bosutinib + OSI-027 = compound: COc1cc(Nc2c(C#N)cnc3cc(OCCCN4CCN(C)CC4)c(OC)cc23)c(Cl)cc1Cl [Bosutinib] + COc1cccc2cc(-c3nc([C@H]4CC[C@H](C(=O)O)CC4)n4ncnc(N)c34)[nH]c12 [OSI-027] (partner 0.5 µM)
In short: as §1

Bosutinib + Alpelisib = compound: COc1cc(Nc2c(C#N)cnc3cc(OCCCN4CCN(C)CC4)c(OC)cc23)c(Cl)cc1Cl [Bosutinib] + Cc1nc(NC(=O)N2CCC[C@H]2C(N)=O)sc1-c1ccnc(C(C)(C)C(F)(F)F)c1 [Alpelisib] (partner 2 µM)
In short: as §1

Bosutinib + Decitabine = compound: COc1cc(Nc2c(C#N)cnc3cc(OCCCN4CCN(C)CC4)c(OC)cc23)c(Cl)cc1Cl [Bosutinib] + Nc1ncn([C@H]2C[C@H](O)[C@@H](CO)O2)c(=O)n1 [Decitabine] (partner 2 µM)
In short: as §1

Row | Cell Line | relative viability (Bosutinib + Luminespib; first compound 0.01 µM) | relative viability (Bosutinib + Luminespib; first compound 0.03162 µM) | relative viability (Bosutinib + Luminespib; first compound 0.1 µM) | relative viability (Bosutinib + Luminespib; first compound 1 µM) | relative viability (Bosutinib + Foretinib; first compound 0.01 µM) | relative viability (Bosutinib + Foretinib; first compound 0.03162 µM) | relative viability (Bosutinib + Foretinib; first compound 0.1 µM) | relative viability (Bosutinib + Foretinib; first compound 1 µM) | relative viability (Bosutinib + OSI-027; first compound 0.01 µM) | relative viability (Bosutinib + OSI-027; first compound 0.03162 µM) | relative viability (Bosutinib + OSI-027; first compound 0.1 µM) | relative viability (Bosutinib + OSI-027; first compound 1 µM) | relative viability (Bosutinib + Alpelisib; first compound 0.01 µM) | relative viability (Bosutinib + Alpelisib; first compound 0.03162 µM) | relative viability (Bosutinib + Alpelisib; first compound 0.1 µM) | relative viability (Bosutinib + Alpelisib; first compound 1 µM) | relative viability (Bosutinib + Decitabine; first compound 0.01 µM) | relative viability (Bosutinib + Decitabine; first compound 0.03162 µM) | relative viability (Bosutinib + Decitabine; first compound 0.1 µM) | relative viability (Bosutinib + Decitabine; first compound 1 µM)
1 | NCI-H1944 | 0.839 | 0.713 | 0.777 | 0.469 | 0.997 | 0.814 | 0.889 | 0.574 | 0.436 | 0.412 | 0.379 | 0.374 | 0.849 | 0.826 | 0.826 | 0.614 | 0.477 | 0.49 | 0.472 | 0.393
2 | NCI-H2023 | 0.802 | 0.852 | 0.704 | 0.579 | 0.874 | 0.921 | 0.81 | 0.498 | 0.477 | 0.429 | 0.377 | 0.362 | 0.581 | 0.655 | 0.538 | 0.426 | 0.233 | 0.248 | 0.216 | 0.25
3 | NCI-H1395 | 0.677 | 0.635 | 0.761 | 0.615 | 0.947 | 0.921 | 0.996 | 0.947 | 0.679 | 0.662 | 0.771 | 0.629 | 1.23 | 1.09 | 1.18 | 0.913 | 0.687 | 0.756 | 0.688 | 0.735
4 | NCI-H2087 | 0.194 | 0.154 | 0.146 | 0.151 | 1.02 | 1.02 | 1.17 | 1.1 | 0.685 | 0.701 | 0.727 | 0.727 | 1.18 | 1.15 | 1.19 | 1 | 0.289 | 0.311 | 0.294 | 0.271
5 | NCI-H838 | 0.327 | 0.269 | 0.385 | 0.237 | 1.08 | 1.02 | 0.989 | 0.598 | 0.43 | 0.45 | 0.361 | 0.317 | 0.961 | 0.879 | 0.864 | 0.432 | 0.467 | 0.507 | 0.422 | 0.411
6 | NCI-H1793 | 0.213 | 0.205 | 0.163 | 0.179 | 0.61 | 0.664 | 0.58 | 0.473 | 0.254 | 0.276 | 0.262 | 0.23 | 0.669 | 0.603 | 0.711 | 0.49 | 0.505 | 0.505 | 0.436 | 0.436
